Assay results published in patent US10676452B2, “Compound for the prophylaxis or treatment of organ damage” (Sulfateq B.V., priority 2015, dated 2020).
“Also recorded” adds a separate entry of the source.

Key:
db/db mice [1] = assay: Organ (kidney) weights at termination; assay type: in vivo, mouse; settings: diabetic mice, after 8 weeks of treatment
Description: (§1) Male db/db mice (n=16) and lean heterozygous control animals (n=16) were purchased from Harlan UK (strain JAX000642). All mice were housed individually. Water and food were given ad-libitum. Four groups of mice were investigated: • 1) db/db+vehicle (diabetic control) • 2) db/db+Sul121 (treated diabetic group) • 3) wt+vehicle (non-diabetic control) • 4) wt+Sul121 (to study effect of drug only) Drug and vehicle were administered by implantation of osmotic minipumps at the age of 10 (t=0) and 14 weeks (t=4). Metabolic cages and blood pressure measurements were performed every two weeks. Blood samples could not be obtained by cheek puncture, therefore blood was collected from the retro orbital plexus at the age of 10 (t=0) and 12 weeks (t=2). At the age of 18 weeks (t=8) all animals were terminated and blood was collected by cardiac puncture. Urinary Measurements
After 8 weeks of treatment, mice were terminated and organ weights were measured (FIG. 2). […] SUL 121 treatment normalized kidney weights to non-diabetic control values.

[2] = test system: mouse renal mesangial cells; assay: In-vitro model of diabetes: intracellular ROS under high glucose and insulin; assay type: cell-based
Source text: To further explore the mechanisms through which SUL 121 mediates renal protection in diabetes, an in-vitro model of diabetes was employed. For this, mouse renal mesangial cells were exposed to conditions simulating type 2 diabetes (high glucose and insulin). Exposure to high glucose/insulin increased intracellular ROS levels by approximately 70% (FIG. 7).

db/db mice [3] = assay: Plasma hydrogen peroxide (ROS production in diabetes); assay type: in vivo, mouse; settings: diabetic mice
Description: (§2) Urinary glucose concentrations were measured by the glucose oxidase method with a specific electrode from 24-h urine collections after the samples were stored in −20° C. The urinary creatinine concentration was measured by standard laboratory methods (Jaffe method without deproteinization, DiaSys Diagnostic Systems, Holzheim, Germany). The median values of the 24-h urine collections and of the albumin-to-creatinine ratio were calculated. In addition, mouse albumin levels in urine were determined manually using a mouse albumin Elisa kit (Abcam, Cambridge, UK). Urinary hydrogen peroxide levels were determined using an Amplex Red H2O2 assay kit (Life technologies, Leusden, the Netherlands).
Enhanced reactive oxygen species (ROS) production is a well-established phenomenon in diabetes. To study the effects of SUL121 treatment on ROS production, hydrogen peroxide, a stable metabolite of ROS, was measured in plasma (FIG. 6). SUL 121 treatment normalized H2O2 levels in plasma.

db/db mice [4] = assay: Arterial blood pressure by tail-cuff method; assay type: in vivo, mouse
Description: as §1
Arterial blood pressure was measured in anaesthetized mice (2% isoflurane) by means of the tail-cuff method (PS-200A; Riken-Kaihatsu; Tokyo, Japan). For each animal, blood pressure values represent the mean of three to ten recordings obtained in a single session.

db/db mice [5] = assay: Metabolic data (body weight, water intake, urine output, non-fasting blood glucose) in db/db mouse Type 2 diabetes model; assay type: in vivo
Source text: Given its effectiveness in the model of renal ischemia and reperfusion, it was hypothesized that compound SUL 121 will also protect the kidney in an experimental model of obesity induced Type 2 diabetes (T2DM). Therefore, the effects of SUL121 on the development of albuminuria and renal damage in the mouse Type 2 diabetes model was studied. For the study, the db/db mouse model was employed. […] Diabetes starts at the age of 6-8 weeks and adequate levels of kidney damage and albuminuria can be observed at the age of 18 weeks.
To study the effects of SUL121 on the development of diabetes, treatment with SUL121 started from the age of 10 weeks until the age of 18 weeks. In addition, to study the effects of SUL 121 on healthy animals, control mice were treated similarly. A non-treated control group was included in the study, to serve as healthy untreated control. Drug and vehicle were administered by implantation of osmotic minipumps at the age of 10 and 14 weeks.
(§3) Cell culture grade DMSO was obtained from Sigma-Aldrich (Zwijndrecht, the Netherlands). 0.9% sterile saline solutions were from Baxter (Utrecht, the Netherlands). (6-hydroxy-2,5,7,8-tetramethylchroman-2-yl)(piperazin-1-yl)methanone (SUL121) was supplied by Sulfateq BV, Groningen, the Netherlands supplied in a formulation of 500 mM in 100% DMSO corresponding to 177 g/l. Osmotic minipumps (Alzet, USA) are resistant to DMSO concentrations≤50%. Therefore, the solubility of SUL121 was tested in 50% DMSO in saline solution. SUL121 was completely soluble in 50% DMSO up to a concentration of 12.6 g/1. Alzet model 2004 pumps were loaded with 200 μl of 12.6 g/1 SUL121 solution or with 200 ul 50% DMSO solution (vehicle). According to pump specifications 6 μl of SUL121 was administered per day, resulting in a daily dose of 2.2 mg/kg/day for a 35 gram mouse.
as §1, §2

rat kidney = settings: blood flow stopped and restored; cited from earlier work
db/db mice [6] = assay: Renal histology: PAS staining, focal glomerulosclerosis (FGS) score; assay type: in vivo, mouse; settings: diabetic mice
Source text: Four-micrometer-thick formalin fixed sections were deparaffinized and stained for periodic acid-Schiff (PAS) for quantification of focal glomerulosclerosis (FGS) and tubular injury. FGS was semiquantitatively scored in a blinded fashion by determining the level of mesangial expansion and focal adhesion in each quadrant in a glomerulus and expressed on a scale from 0 to 4. If 25% of the glomerulus was affected, it was scored as 1, 50% as 2, 75% as 3, and 100% as 4. In total, 50 glomeruli per kidney were analyzed, and the total FGS score was calculated by multiplying the score by the percentage of glomeruli with the same FGS score. Thus the total FGS score ranged from 0 to 200.

mouse aortic rings = assay: Organ bath experiments with the isolated aorta of treated mice (ACh relaxation after PE precontraction); assay type: in vivo; settings: for max. relaxation to ACh (remaining % of PE preconstriction): aortic rings
Description: Freshly isolated thoracic aortic rings (1.5-2 mm in length) were mounted on 200-μm stainless wires in individual myograph baths (Danish Myo Technology, Aarhus, Denmark). Briefly, baths containing 6 ml Krebs solution were warmed to 37° C. and preequilibrated and continuously aerated with 95% O2-5% CO2 to maintain pH at 7.4. The length of the aortic strips was assessed by microscopy. Aortic rings were equilibrated for 40 min until they were at a steady baseline. Rings were then primed and checked for viability by two consecutive stimulations with KCl (60 mM) followed by washings and renewed stabilization to obtain reproducible contractile responses.
Contraction responses were measured as cumulative concentration-response curves to phenylephrine (PE; 10 nM-100 μM) followed by a single concentration of KCl (90 mM). Endothelium-dependent relaxation was assessed by obtaining concentration-response curves to ACh (10 nM-300 μM) in rings precontracted with PE (1 μM) followed by stimulation with a high concentration of the NO donor sodium nitroprusside (SNP; 0.1 mM) to assess maximal endothelium-independent dilation.
To study the role of the endothelium in vasoconstrictor effects, rings were denuded by removing the endothelial cell layer by rubbing the luminal side of the vessel with a moistened wire. To examine the contribution of different EDRFs in modulating vasoconstrictor responses and mediating endothelium-dependent relaxation, inhibitors of PG and NO synthesis were used. To this end, PG components were assessed by preincubating rings (20 min.) with the nonspecific cyclooxygenase inhibitor indomethacin (10 μM). The NO component was examined by subsequent incubation with both NO synthesis inhibitor NG-monomethyl-L-arginine (L-NMMA; 1 μM) and indomethacin. The remaining ACh-mediated relaxation was attributed to an unidentified EDHF.
Contractions to KCl and PE are given in milliNewtons. Relaxation responses to ACh and SNP are expressed as percentages of the preconstriction with PE. In addition to that, the area under each individual curve (AUC; in arbitrary units) was determined for ACh-induced relaxation (SigmaPlot version 10.0, Systat Software, San Jose, Calif.). The AUC was used to present total endothelium-dependent relaxation and for the subsequent analysis of differences in ACh-mediated relaxation with and without inhibitors present to estimate the contribution of the different EDRFs, i.e., PGs for the part sensitive to cycloxygenase inhibition with indomethacin, NO for the part sensitive to NOS inhibition with L-NMMA, and EDHF by means of exclusion of PG and NO (34).

db/db mice [7] = assay: Urinary albumin excretion and albumin/creatinine ratio; assay type: in vivo, mouse
Description: as §1, §2
To test whether SUL 121 treatment could reduce renal damage, albumin leakage into the urine was measured at all time points for diabetic animals. Total albumin excretion per day (AER) was calculated by multiplying urinary albumin concentration with daily urinary output (FIG. 3A).

[8] = Solubility of SUL121 in 50% DMSO in saline solution; assay type: physicochemical; settings: aqueous with cosolvent or surfactant or cyclodextrin, kinetic from dmso stock, read-out: solubility in 50% DMSO (completely soluble up to)
Description: as §3

Cc1c(C)c2c(c(C)c1O)CCC(C)(C(=O)N1CCNCC1)O2 (stereo not shown) [SUL121, (6-hydroxy-2,5,7,8-tetramethylchroman-2-yl)(piperazin-1-yl)methanone]
effect on kidney weights (kidney hypertrophy) (db/db mice [1]): normalized | effect on high glucose/insulin induced increase of intracellular ROS ([2]; cells pretreated, high glucose and insulin): substantially inhibited; also recorded: normalized | effect on intracellular ROS production, compound alone ([2]; without high glucose/insulin): did not affect | effect on plasma H2O2 levels (db/db mice [3]): normalized | effect on blood pressure (db/db mice [4]; diabetic mice): did not affect | effect on blood pressure (db/db mice [4]; non-diabetic wild type mice, week 2): lowered | effect on blood pressure (db/db mice [4]; week 6): did not affect | effect on urine output and water intake (db/db mice [5]; all time points other than week 8): did not significantly affect | effect on blood glucose levels (db/db mice [5]; diabetic db/db mice): did not affect | non-fasting blood glucose level (db/db mice [5]; diabetic db/db mice, end of the experiment): 35.3 ± 1.1 mM | non-fasting blood glucose level (db/db mice [5]; diabetic db/db mice, start of the experiment): 27.2 ± 1.3 mM | urine output (db/db mice [5]; diabetic db/db mice, week 8): 11.2 ± 3.8 g | water intake (db/db mice [5]; diabetic db/db mice, week 8): 10.9 ± 3.9 g | reduction of ischemia and reperfusion damage (rat kidney): very effective | effect on focal glomerular sclerosis (FGS) scores (db/db mice [6]): significantly reduced | effect on focal glomerular sclerosis (FGS) scores (db/db mice [6]; listed as SUL 121): significantly lowered | effect on NO and prostaglandin components of relaxation (mouse aortic rings; diabetic animals): non-significant (p=0.06) increase | effect on EDHF component of total relaxation (mouse aortic rings; diabetic animals, with L-NMMA and indomethacin): significantly increasing | effect on endothelium mediated relaxation (mouse aortic rings; diabetic mice): restores | max. relaxation to ACh (remaining % of PE preconstriction) (mouse aortic rings; treated diabetic group): 11.3±2.3% | max. relaxation to ACh (remaining % of PE preconstriction) (mouse aortic rings; treated non-diabetic controls): 9.2±1.6% | effect on total albumin excretion per day (AER) (db/db mice [7]; diabetic animals, weeks 6 and 8): prevented the progression | albumin/creatinine ratio (ACR) (db/db mice [7]; diabetic mice, week 6): 534 ± 79 µg/mg | albumin/creatinine ratio (ACR) (db/db mice [7]; diabetic mice, week 8 (not statistically significant vs diabetic control)): 866 ± 91 µg/mg | effect on AER (db/db mice [7]; non-diabetic animals): did not affect | total albumin excretion per day (AER) (db/db mice [7]; non-diabetic animals, week 8): 31.3 ± 4.6 µg/day | albumin/creatinine ratio (ACR) (db/db mice [7]; wild type animals, week 8): 55 ± 6 µg/mg | solubility [8]: ≥ 12.6 mg/mL
